Laboratory results reported in patent US20170267750A1, “Method of Treating Ovarian and Renal Cancer Using Antibodies Against T Cell Immunoglobulin Domain and Mucin Domain 1 (TIM-1) Antigen” (Celldex Therapeutics, Inc., priority 2005, published 2017).
Counter-ions that a name gives are not always drawn.

What was measured:
[1] = system: IGROV1 ovarian carcinoma xenografts; assay: Human ovarian carcinoma xenograft model (IGROV1) in athymic mice; format: in vivo, athymic mice (CD-1 nu/nu females)
Method: An in vivo study was performed to assess the potency and therapeutic efficacy of the antibody-drug conjugate, CR014-vcMMAE, against an established human IGROV-1 ovarian xenograft in athymic mice.
Test Animals: Five- to 6-week old athymic mice (CD-1 nu/nu females), used for human tumor xenografts, were obtained from Charles Rivers Laboratories (Wilmington, Del.). Animals were housed in specific pathogen-free conditions, according to the guidelines of the Association for Assessment and Accreditation of Laboratory Animal Care International (AAALAC International). Test animals were provided pelleted food and water ad libitum and kept in a room with conditioned ventilation (HVAC), temperature (22°±2° C.), relative humidity (55%±15%), and photoperiod (12 hr). All studies were carried out with approved institutional animal care and use protocols. Contract Research Organizations. Experiments in vivo were conducted at Southern Research Institute (Birmingham, Ala.).
Human Ovarian Carcinoma Xenograft Model. The tumor inhibitory activity of the CR014-MMAE immunoconjugate was measured in an anti-tumor xenograft model using athymic mice, according to published methods (Geran R I, Greenberg N H, Macdonald M M, Schumacher A M and Abbott B J (1972) Protocols for screening chemical agents and natural products against animal tumors and other biological systems. Cancer Chemother Rep 3:1-104).
Briefly, test animals were implanted subcutaneously by trocar with small fragments of the IGROV1 carcinoma (30-60 mg) excised from athymic mouse tumor donors. […]
The IGROV1 ovarian carcinoma was derived from a person in 1985, and was obtained from the American Type Culture Collection. The effects of treatment were monitored by repetitive tumor measurements across 2 diameters with Vernier calipers; tumor size (in mg) was calculated using a standard formula, (W^2×L)/2, assuming a specific gravity of 1.0. Tumor size and body weights were assessed twice weekly. […]

[2] = system: ACHN cells; assay: Antibody mediated toxin killing clonogenic assay (saporin conjugated secondary antibody), ACHN; format: cell-based, human; conditions: EGFR mAb at 100 ng/mL with saporin secondary
Method: (§1) A clonogenic assay as described in the art was used to determine whether primary antibodies can induce cancer cell death when used in combination with a saporin toxin conjugated secondary antibody reagent. Kohls and Lappi, Biotechniques, 28(1):162-5 (2000).
(§2) ACHN and BT549 cells were plated onto flat bottom tissue culture plates at a density of 3000 cells per well. On day 2 or when cells reached ˜25% confluency, 100 ng/well secondary mAb-toxin (goat anti-human IgG-saporin; Advanced Targeting Systems; HUM-ZAP; cat. no. IT-22) was added. A positive control anti-EGFR antibody, mAb 2.7.2, mAb 2.59.2, or an isotype control mAb was then added to each well at the desired concentration (typically 1 to 500 ng/mL). On day 5, the cells were trypsinized, transferred to a 150 mm tissue culture dish, and incubated at 37° C. Plates were examined daily. On days 10-12, all plates were Giemsa stained and colonies on the plates were counted. Plating efficiency was determined by comparing the number of cells prior to transfer to 150 mm plates to the number of colonies that eventually formed.
(§3) The percent viability in antigen positive ACHN and antigen negative BT549 cell lines are presented in FIG. 4 and FIG. 5 respectively.

[3] = system: BT549 cells; assay: Antibody mediated toxin killing clonogenic assay (saporin conjugated secondary antibody), BT549; format: cell-based, human; conditions: EGFR mAb at 100 ng/mL with saporin secondary
Method: as §1, §2, §3

## CC[C@]1(O)C[C@@H]2CN(CCc3c([nH]c4ccccc34)[C@@](C(=O)OC)(c3cc4c(cc3OC)N(C)[C@H]3[C@@](O)(C(=O)OC)[C@H](OC(C)=O)[C@]5(CC)C=CCN6CC[C@]43[C@@H]65)C2)C1 [Vinblastine, vinblastine sulfate]
[1]; vinblastine sulfate i.v., 1.7 mg/kg, q4d×4 (MTD)
  anti-tumor effect: very slight, but not significant, anti-tumor effect

## CC(=O)O[C@H]1C(=O)[C@@]2(C)[C@H]([C@H](OC(=O)c3ccccc3)[C@]3(O)C[C@H](OC(=O)[C@H](O)[C@@H](NC(=O)c4ccccc4)c4ccccc4)C(C)=C1C3(C)C)[C@]1(OC(C)=O)CO[C@@H]1C[C@@H]2O [Paclitaxel, paclitaxel]
[1]; 101 days after the commencement of treatment
  re-growth of tumors during the observation period: not observed
[1]; paclitaxel i.v., 24 mg/kg, q2d×4 (MTD)
  anti-tumor effect: significant tumor growth inhibition

## O=c1[nH]cc(F)c(=O)[nH]1 [5-FU, 5 Fluorouracil, reference compound]
[2]
  killing in clonogenic assay (controls): almost complete killing
[3]
  killing in clonogenic assay (controls): almost complete killing
